Laboratory results from patent US11846640B2, “Identification of anticoagulants in a sample” (DSM IP Assets B.V., priority 2013, dated 2023).

Legend:
Assay type in all cases: biochemical, human
plasma samples = experiment: PT (HemosIL PT recombiplastin) clotting time; conditions: for Clotting time with PT: Table 6, spiked plasma, mean
Method: In order to address the above question, i.e. to determine the nature of an anticoagulant in a sample, a combination of several methods has to be performed, including PiCT® Method 1, PiCT® Method 4, aPTT (HemosIL™ aPTT SP), PT (HemosIL™ PT recombiplastin), and sometimes even a modified PiCT® Method 1 wherein polybrene has been added. In order to simulate this, plasma samples spiked with different levels of anticoagulants were analyzed using the ACL TOP® 500 analyzer.

normal plasma pool (NPP) [1] = experiment: PiCT Method 4 (inverted PiCT) clotting time on ACL TOP 500; conditions: for Clotting time: Table 10A, PiCT Method 4, NPP spiked, mean n = 4; for PiCT ® method 4 clotting time: Table 11
Method: The present invention is in one aspect directed to the use of a clotting assay, in particular the PiCT® testing method on a detection system such as e.g. the ACL TOP® 500 analyzer and to a method to quantitatively and qualitatively detect anticoagulants in a sample, e.g. blood or plasma. […] PiCT® Method 4 or PiCT® inverted includes that first the start reagent is added to the sample, the mixture allowed to proceed according to the manufacturer's instructions followed by addition of the activator, i.e. a reversed order compared to standard PiCT® (see above). PiCT® Method 1 to 4 is described in more detail in the Examples.
(§1) The 4 methods (see above) are in more detail described in the Examples. Specific pipetting schemes were designed using NPP spiked with incremental amounts of anticoagulants in order to achieve high reproducibility of the test system, which is required for drug identification including use in a POC system. With regards to the ACL TOP® 500 analyzer, PiCT® Method 1 to 4 has been established as follows: • PiCT® Method 1: 50 μl of plasma is incubated for 180 sec with 50 μl of reagent 1 and afterwards 50 μl of reagent 2 is added and the time to clot is recorded on the ACL TOP® 500 (i.e. pipetting scheme: P-50/A-50/I-180/50-S).
After calculation of the RR for the different kind of anticoagulants (see Example 1) samples of NPP spiked with incremental amounts of anticoagulants were used in the ACL TOP® 500, wherein 45 μl start reagent was incubated with 140 μl plasma for 60 sec. The time to clot was recorded after addition of 40 μl of activator (i.e. so-called inverted PiCT®).

normal plasma pool (NPP) [2] = experiment: PiCT Method 1 (standard Pefakit PiCT) clotting time on ACL TOP 500; conditions: for Clotting time with PiCT ® Method 1: spiked plasma
Text: As described by Korte et al. (supra) or in EP 1240528, Pefakit® PiCT® is a functional clotting assay based on the direct activation of the prothrombinase complex which results in a fine-tuned analytical output directly proportional to the final anticoagulant activity of the factor Xa or factor IIa inhibitors (see Calatzis, Haemostasis 2000, 30:172-174). To perform the Pefakit® PiCT® test (referred to herein as standard “PiCT® or PiCT® Method 1), a defined amount of PiCT® activator (=reagent 1) is added to a sample, such as, e.g., plasma. The mixture is allowed to proceed at 37° C. for a specific period of time. The Start reagent (=reagent 2) is then added to the mixture and the time required for clot formation is measured. The presence of anticoagulants in the samples dose-dependently prolongs the time to clot. Pefakit® PiCT® is adapted to laboratory instruments based on mechanical or optical detection systems, including but not limited to ACL TOP® family (Instrumentation Laboratory), preferably ACL TOP® 500, STA Compact® series (Stago) or the BCS® XP series (Siemens).
as §1, with “P-50/A-50/I-180/50-S). This method is in particularly useful for detection of UFH, LMWH or hirudin. • PiCT® Method 2: P-75/A-65/I-180/35-S on the ACL TOP® 500 or P-80/A-65/I-180/40-S on the STA Compact® or P-75/A-65/I-180/S-40 on the BCS® XP. This method is in particularly useful for fondaparinux. • PiCT® Method 3: P-90/A-70/I-180/40-S on the ACL TOP® 500 or STA Compact®, or P-70/A-60/I-180/45-S on the BCS® XP. This method is in particularly useful for dabigatran or argatroban. • PiCT® Method 4: P-140/S-45/I160/A-40 on the ACL TOP® 500 or STA Compact®, or P-125/S-45/I-150/A-40 on the BCS® XP. This method is in particularly useful for rivaroxaban or apixaban.” for “P-50/A-50/I-180/50-S).”
With the normal PiCT®, i.e. PiCT® Method 1, wherein 50 μl of plasma is mixed with the same amount of reagent 1 (PiCT® activator), incubated for 180 sec and mixed with the same amount of reagent 2 (PiCT® start reagent) in a ACL TOP® 500 analyzer, the presence of NOACs cannot be determined in a sample. This is true even at high levels of said drugs in the sample, i.e. in the range of 300 ng/ml. Thus, in order to determine which NOAC is present in the sample, a combination of PiCT® Method 1 and PiCT® method 4 has to be used (see above for detailed description). To confirm this, spiked plasma samples with different levels of NOACs were prepared and the clotting time measured using first PiCT® Method 1 followed by PiCT® Method 4. […] In case of dabigatran present in the sample, both PiCT® Method 1 (which had to be adapted, i.e. PiCT® Method 3) and 4 are out of range as indicated in bold.

Structure (SMILES): O=C(NC[C@H]1CN(c2ccc(N3CCOCC3=O)cc2)C(=O)O1)c1ccc(Cl)s1 [rivaroxaban]
- Clotting time with PT (plasma samples; 50 ng): 12.2 s
- Clotting time with PT (plasma samples; 200 ng): 20.3 s
- PT clotting time relative to reference range (RR) (plasma samples; only at higher doses, in the range of 200 ng or more): above the RR
- Clotting time with PiCT ® Method 4 (normal plasma pool (NPP) [1]; Table 4, NPP spiked with 20 ng per ml): 70 s
- Clotting time with PiCT ® Method 4 (normal plasma pool (NPP) [1]; Table 4, NPP spiked with 35 ng per ml): 80 s
- Clotting time with PiCT ® Method 4 (normal plasma pool (NPP) [1]; Table 5, spiked plasma, 20 ng per ml): 70 s
- Clotting time with PiCT ® Method 4 (normal plasma pool (NPP) [1]; Table 5, spiked plasma, 35 ng per ml): 80 s
- Clotting time with PiCT ® Method 4 (normal plasma pool (NPP) [1]; Table 5, spiked plasma, 300 ng per ml): 162.1 s
- Clotting time with PiCT ® Method 4 (normal plasma pool (NPP) [1]; Table 6, spiked plasma, 50 ng, mean): 83.6 s
- Clotting time with PiCT ® Method 4 (normal plasma pool (NPP) [1]; Table 6, spiked plasma, 200 ng, mean): 132.8 s
- Clotting time (normal plasma pool (NPP) [1]; 5 ng/ml): 71 s
- Clotting time (normal plasma pool (NPP) [1]; 10 ng/ml): 83 s
- Clotting time (normal plasma pool (NPP) [1]; 50 ng/ml): 118 s
- Clotting time (normal plasma pool (NPP) [1]; 100 ng/ml): 149 s
- Clotting time (normal plasma pool (NPP) [1]; 200 ng/ml): 191 s
- Clotting time (normal plasma pool (NPP) [1]; 300 ng/ml): 220 s
- Clotting time (normal plasma pool (NPP) [1]; 400 ng/ml): 248 s
- Clotting time (normal plasma pool (NPP) [1]; 500 ng/ml): 270 s
- Clotting time (normal plasma pool (NPP) [1]; 600 ng/ml): 278 s
- PiCT ® method 4 clotting time (normal plasma pool (NPP) [1]; spiked plasma, 20 ng/mL (wash off level)): 70 sec (n = 3)
- PiCT ® method 4 clotting time (normal plasma pool (NPP) [1]; spiked plasma, 35 ng/mL (wash off level)): 80 sec (n = 3)
- Clotting time with PiCT ® Method 1 (normal plasma pool (NPP) [2]; Table 5, 20 ng per ml (title: Method 3 for dabigatran)): 17 s
- Clotting time with PiCT ® Method 1 (normal plasma pool (NPP) [2]; Table 5, 35 ng per ml (title: Method 3 for dabigatran)): 18 s
- Clotting time with PiCT ® Method 1 (normal plasma pool (NPP) [2]; Table 5, 300 ng per ml (title: Method 3 for dabigatran)): 29.3 s
- Clotting time with PiCT ® Method 1 (normal plasma pool (NPP) [2]; Table 6, 50 ng, mean): 19.0 s
- Clotting time with PiCT ® Method 1 (normal plasma pool (NPP) [2]; Table 6, 200 ng, mean): 25.5 s
- Clotting time with standard PiCT (Method 1) relative to reference range (RR) (normal plasma pool (NPP) [2]; concentrations in the range of about 300 ng/ml in the sample): in the RR

Structure (SMILES): CC1CNc2c(cccc2S(=O)(=O)N[C@@H](CCCNC(=N)N)C(=O)N2CC[C@@H](C)C[C@@H]2C(=O)O)C1 (stereo partly shown) [argatroban]
- Clotting time with PT (plasma samples; 0.3 μg): 15.0 s
- Clotting time with PT (plasma samples; 1.5 μg): 31.2 s
- Clotting time with PiCT ® Method 4 (normal plasma pool (NPP) [1]; Table 4, NPP spiked with 0.3 μg per ml): 147 s
- Clotting time with PiCT ® Method 4 (normal plasma pool (NPP) [1]; Table 6, spiked plasma, 0.3 μg, mean): 147.4 s
- Clotting time with PiCT ® Method 4 (normal plasma pool (NPP) [1]; Table 6, spiked plasma, 1.5 μg, mean): 300.0 s
- Clotting time with PiCT ® Method 1 (normal plasma pool (NPP) [2]; Table 6, 0.3 μg, mean): 98.5 s
- Clotting time with PiCT ® Method 1 (normal plasma pool (NPP) [2]; Table 6, 1.5 μg, mean): 150.3 s
